{"source": "patent US20260151414A1", "about": "“COMPOSITIONS AND THERAPEUTIC METHODS FOR TREATING CHRONIC SEQUALAE FOLLOWING VIRAL INFECTIONS” (priority 2023, published 2026)", "key": {"PASC (Long Covid)": {"test_system": "PASC (Long Covid)", "experiment": "Clinical example: inventor's self-treatment of Long Covid (PASC) symptoms", "format": "in vivo, human", "conditions": "for relief of constant headache: person, symptoms returning from mid-December 2020 after Covid, self-medication"}, "ACE2 receptor": {"molecular_target": "ACE2 receptor (Homo sapiens, UniProt Q9BYF1)", "sequence (Q9BYF1 18-805)": "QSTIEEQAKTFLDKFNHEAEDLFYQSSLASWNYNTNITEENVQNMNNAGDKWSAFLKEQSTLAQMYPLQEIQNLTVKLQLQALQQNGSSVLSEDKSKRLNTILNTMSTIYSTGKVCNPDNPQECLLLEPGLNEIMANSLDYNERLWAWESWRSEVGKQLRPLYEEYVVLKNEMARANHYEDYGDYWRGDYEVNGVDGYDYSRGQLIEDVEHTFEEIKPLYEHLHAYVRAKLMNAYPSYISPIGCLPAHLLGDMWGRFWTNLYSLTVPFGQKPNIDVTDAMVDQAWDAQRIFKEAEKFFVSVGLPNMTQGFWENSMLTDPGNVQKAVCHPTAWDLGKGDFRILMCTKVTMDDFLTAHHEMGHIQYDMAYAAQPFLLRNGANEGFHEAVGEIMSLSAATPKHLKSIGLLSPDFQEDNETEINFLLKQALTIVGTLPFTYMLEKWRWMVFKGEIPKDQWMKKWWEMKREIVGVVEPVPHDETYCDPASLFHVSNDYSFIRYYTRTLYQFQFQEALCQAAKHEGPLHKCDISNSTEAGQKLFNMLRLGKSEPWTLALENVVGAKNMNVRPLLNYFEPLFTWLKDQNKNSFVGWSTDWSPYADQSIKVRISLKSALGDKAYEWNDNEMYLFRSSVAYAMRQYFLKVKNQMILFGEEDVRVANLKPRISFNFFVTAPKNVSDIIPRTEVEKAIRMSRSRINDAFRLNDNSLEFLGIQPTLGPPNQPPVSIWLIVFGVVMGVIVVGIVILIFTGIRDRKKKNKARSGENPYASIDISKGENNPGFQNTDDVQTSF", "conditions": "active site of ACE2 receptor; cited from earlier work"}, "Covid-19 [1]": {"test_system": "Covid-19", "conditions": "cited from earlier work"}, "Covid-19 [2]": {"test_system": "Covid-19", "conditions": "cited from earlier work", "remark": "listed apart in the source"}}, "data": [{"molecule": "COc1ccc2cc([C@H](C)C(=O)O)ccc2c1", "note": "[naproxen]", "values": [{"measurement": "relief of constant headache", "setting": "PASC (Long Covid)", "value": "would not go away"}]}, {"molecule": "O=C(O)C=Cc1ccccc1", "note": "[Cinnamic Acid]", "values": [{"measurement": "blocking of Covid-19 via ACE2 receptor", "setting": "ACE2 receptor", "value": "block Covid-19 via the active site of ACE2 receptor"}]}, {"molecule": "CC(C)Cc1ccc(C(C)C(=O)O)cc1", "note": "(stereo not shown) [ibuprofen]", "values": [{"measurement": "relief of constant headache", "setting": "PASC (Long Covid)", "value": "would not go away"}]}, {"molecule": "O=c1c(O)c(-c2ccc(O)c(O)c2)oc2cc(O)cc(O)c12", "note": "[Quercetin]", "values": [{"measurement": "energy and headaches", "setting": "PASC (Long Covid); Black Seed Oil and Quercetin (with Zinc) used together, within a few days of using them", "value": "an increase in energy and I was having fewer headaches"}]}, {"molecule": "C=C1CC[C@@H]2[C@](C)(CO)[C@H](O)CC[C@@]2(C)[C@@H]1C/C=C1/C(=O)OC[C@H]1O", "note": "[andrographolide]", "values": [{"measurement": "inhibitory effect against Covid-19", "setting": "Covid-19 [1]", "value": "potent inhibitory effect"}]}, {"molecule": "O=C(O)c1ccccc1", "note": "[Benzioc Acid]", "values": [{"measurement": "antiviral properties for Covid-19", "setting": "Covid-19 [2]", "value": "strong antiviral properties"}]}, {"molecule": "CC(=O)Oc1ccccc1C(=O)O", "note": "[aspirin]", "values": [{"measurement": "relief of constant headache", "setting": "PASC (Long Covid)", "value": "would not go away"}]}]}
